According to PubChem BioAssay AID2060900 (Molecular Pharmacology Branch, DTP, NCI, 2025):

Test system: 521955-158-R2-J5-PDC complex spheroids, viability
Test: Anticancer human tumor 521955-158-R2-J5-PDC patient-derived pancreatic carcinoma cell line growth inhibition [RAS]
Conditions: for IC50: curve of first compound; for viability, T/C: stronger effect = lower value
Summary of the method: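 Tumour cells grown as complex spheroids with HUVEC endothelial cells and mesenchymal stem cells, treated with RAS pathway inhibitor combinations. Each agent spans half-log steps from near clinical Cmax, or 10 microM where Cmax is unknown.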
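Also: compound exposure lasted seven days before the viability read.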
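For viability, T/C in this document: spheroids also contain HUVEC endothelial cells and mesenchymal stem cells as stroma.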

CC(C)NCC(C(=O)N1CCN(c2ncnc3c2C(C)CC3O)CC1)c1ccc(Cl)cc1 (configuration not stated) + CCn1c(-c2cc(N3CCN(C)CC3)cnc2C(C)OC)c2c3cc(ccc31)-c1csc(n1)CC(NC(=O)C1CC1C)C(=O)N1CCCC(N1)C(=O)OCC(C)(C)C2 was tested, and the IC50 (second compound 0.000949 µM) was under 0.0316 µM, the IC50 (second compound 0.003 µM) was under 0.0316 µM and the IC50 (second compound 0.00949 µM) was under 0.0316 µM. For the same compound, the IC50 (second compound 0.03 µM) was under 0.0316 µM, the IC50 (second compound 0.0949 µM) was under 0.0316 µM and the IC50 (second compound 0.3 µM) was under 0.0316 µM. The viability, T/C (second compound 0.000949 µM, first compound 0.0316 µM) was 33.8%, the viability, T/C (second compound 0.000949 µM, first compound 0.1 µM) was 38.8% and the viability, T/C (second compound 0.000949 µM, first compound 0.316 µM) was 35.5%. For the same compound, the viability, T/C (second compound 0.000949 µM, first compound 1 µM) was 23%, the viability, T/C (second compound 0.000949 µM, first compound 3.16 µM) was 15.5% and the viability, T/C (second compound 0.000949 µM, first compound 10 µM) was 18.1%. For the same compound, the viability, T/C (second compound 0.003 µM, first compound 0.0316 µM) was 41.8%, the viability, T/C (second compound 0.003 µM, first compound 0.1 µM) was 37% and the viability, T/C (second compound 0.003 µM, first compound 0.316 µM) was 36%. It also gave a viability, T/C (second compound 0.003 µM, first compound 1 µM) of 15%, a viability, T/C (second compound 0.003 µM, first compound 3.16 µM) of 6.94% and a viability, T/C (second compound 0.003 µM, first compound 10 µM) of 11.1%. For the same compound, the viability, T/C (second compound 0.00949 µM, first compound 0.0316 µM) was 38.7%, the viability, T/C (second compound 0.00949 µM, first compound 0.1 µM) was 33.9% and the viability, T/C (second compound 0.00949 µM, first compound 0.316 µM) was 28%. For the same compound, the viability, T/C (second compound 0.00949 µM, first compound 1 µM) was 8.72%, the viability, T/C (second compound 0.00949 µM, first compound 3.16 µM) was 4.36% and the viability, T/C (second compound 0.00949 µM, first compound 10 µM) was 7.59%. It also gave a viability, T/C (second compound 0.03 µM, first compound 0.0316 µM) of 20.9%, a viability, T/C (second compound 0.03 µM, first compound 0.1 µM) of 21.9% and a viability, T/C (second compound 0.03 µM, first compound 0.316 µM) of 16.6%. The viability, T/C (second compound 0.03 µM, first compound 1 µM) was 5.37%, the viability, T/C (second compound 0.03 µM, first compound 3.16 µM) was 5.01% and the viability, T/C (second compound 0.03 µM, first compound 10 µM) was 1.08%. The viability, T/C (second compound 0.0949 µM, first compound 0.0316 µM) was 11.8%, the viability, T/C (second compound 0.0949 µM, first compound 0.1 µM) was 13.1% and the viability, T/C (second compound 0.0949 µM, first compound 0.316 µM) was 8.25%. For the same compound, the viability, T/C (second compound 0.0949 µM, first compound 1 µM) was 4.84%, the viability, T/C (second compound 0.0949 µM, first compound 3.16 µM) was 4.83% and the viability, T/C (second compound 0.0949 µM, first compound 10 µM) was 1.9%. The viability, T/C (second compound 0.3 µM, first compound 0.0316 µM) was 10.5%, the viability, T/C (second compound 0.3 µM, first compound 0.1 µM) was 11% and the viability, T/C (second compound 0.3 µM, first compound 0.316 µM) was 8.33%. The viability, T/C (second compound 0.3 µM, first compound 1 µM) was 2.49%, the viability, T/C (second compound 0.3 µM, first compound 3.16 µM) was 4.32% and the viability, T/C (second compound 0.3 µM, first compound 10 µM) was 1.07%.
